The values below come from US8263344B2, “Compounds regulating calreticulin, KDEL receptor and/or Erp-57 cell surface exposure and uses thereof to evaluate the efficiency of a cancer treatment” (Institut Gustave Roussy, priority 2006, dated 2012).

For experiment [1], the system named is CT26 cells. Nature of the experiment: Fluorescence detection of cell surface CRT. Format: cell-based, murine. How it is done:
CT26 cells were cultured at 37° C. under 5% CO2 in RPMI 1640 medium supplemented with 10% FCS, penicillin, streptomycin, 1 mM pyruvate and 10 mM HEPES in the presence of doxorubicin (DX; 24 h, 25 μM), mitoxantrone (Mitox; 24 h, 1 μM, Sigma), idarubicin (24 h, 1 μM, Aventis, France), mitomycin C (30 μM, 48 h; Sanofi-Synthelabo, France), and/or zVAD-fmk (50 μM, 24 h; Bachem), tunicamycin (24 h, 65 μM), thapsigargin (24 h, 30 μM), brefeldin A (24 h, 50 μM, Sigma), etoposide (48 h, 25 μM, Tava classics), MG132 (48 h, 10 μM), ALLN (48 h, […]), betulinic acid (24 h, 10 μM), Hoechst 33343 (24 h, 0.2 μM), camptothecine (24 h, 15 μM), lactacystin (48 h, 60 μM), BAY 11-8072 (24 h, 30 μM), staurosporine (24 h, 1.5 μM), bafilomycin A1 (48 h, 300 nM), arsenic trioxide (24 h, 30 μM), C2-ceramide (C2-C; 24 h, 60 μM), calyculin A (48 h, 30 nM), or tautomycin (48 h, […], Sigma) and/or salubrinal (48 h, […], Calbiochem).
CT26 cells (on a glass slide or in 12-well plates) were first washed with FACS buffer (1×PBS, 5% fetus bovine serum, and 0.1% sodium azide) and then incubated with rabbit anti-mouse CRT antibody (1:100, Stressgen) in FACS buffer at 4° C. for 30 min. Cells reacted with anti-rabbit IgG (H+L) Alexa fluor 488-conjugates (1:500) in FACS buffer at 4° C. for 30 min. After washing three times with FACS buffer, surface CRT was detected by cytofluorometric analysis on a FACS Vantage. In some experiments, cells were fixed with 4% paraformaldehyde, counterstained with Hoechst (2 μM; Sigma), followed by fluorescence microscopic assessment with a Leica IRE2 microscope equipped with a DC300F camera.

Experiment [2] has as its system CT26 tumour cells. Nature of the experiment: Anti-tumour vaccination with treated (dying) CT26 cells and challenge with live tumour cells. The note with it: for immunogenic apoptosis / immunogenic cell death (protection against tumour growth): dying CT26 cells injected into one flank, rechallenge with live tumour cells in opposite flank 8 days later. It counts as in vivo, BALB/c mice.

For experiment [3], the system named is CT26 tumours. Nature of the experiment: Single intratumoural injection into established CT26 tumours, athymic mice. Details: species or system nu/nu Balb/c mice. The conditions noted are these: mouse, in vivo.
Experiment [4] has as its system CT26 tumours. Nature of the experiment: Single intratumoural injection into established CT26 tumours, immunocompetent mice. Format: in vivo, BALB/c mice. The conditions noted are these: mouse, in vivo.

Consider `CCCCCCCCCCCCC/C=C/[C@@H](O)[C@H](CO)NC(=O)CCCCCCCCCCCCCCC` [C16-ceramide], for which the “ecto-CRT after C16-ceramide” value in experiment [1] (30 μM, 2 h) is given as “rapidly induces ecto-CRT”.

Regarding `CC(=O)[C@]1(O)Cc2c(O)c3c(c(O)c2[C@@H](O[C@H]2C[C@H](N)[C@H](O)[C@H](C)O2)C1)C(=O)c1ccccc1C3=O` [idarubicin], the “immunogenic apoptosis / immunogenic cell death (protection against tumour growth)” value in experiment [2] was “elicited immunogenic cell death”.

For the compound tunicamycin, the “immunogenic apoptosis / immunogenic cell death (protection against tumour growth)” value in experiment [2] is “failed to induce immunogenic apoptosis”.

Consider `CCCCCCCCCCCCC/C=C/[C@@H](O)[C@H](CO)NC(C)=O` [C2 ceramide, C2-ceramide], for which, in experiment [2], the “immunogenic apoptosis / immunogenic cell death (protection against tumour growth)” value is given as “failed to induce immunogenic apoptosis”.

In the case of `CC[C@@]1(O)C(=O)OCc2c1cc1n(c2=O)Cc2cc3ccccc3nc2-1` [camptothecin], in experiment [2], the “immunogenic apoptosis / immunogenic cell death (protection against tumour growth)” value was “failed to induce immunogenic apoptosis”.

Regarding `COc1cc([C@@H]2c3cc4c(cc3[C@@H](O[C@@H]3O[C@@H]5CO[C@@H](C)O[C@H]5[C@H](O)[C@H]3O)[C@H]3COC(=O)[C@H]23)OCO4)cc(OC)c1O` [etoposide], the “therapeutic effect of intratumoural injection, single agent, nu/nu mice” value in experiment [3] was “no major therapeutic effect”. The “immunogenic apoptosis / immunogenic cell death (protection against tumour growth)” value in experiment [2] is reported as “failed to induce immunogenic apoptosis”. Further, the “immunogenicity of sham-coated cells treated with etoposide” value in experiment [2] (mouse, in vivo) was “poorly immunogenic”. Further, in experiment [1], the “CRT exposure at the cell surface” value is given as “fail to induce ecto-CRT”. Besides, the “therapeutic effect of intratumoural injection, single agent, immunocompetent mice” value in experiment [4] is listed as “no major therapeutic effect”.

For the compound `CO[C@@]12[C@H](COC(N)=O)C3=C(C(=O)C(C)=C(N)C3=O)N1C[C@@H]1N[C@@H]12` [mitomycin C], in experiment [3], the “therapeutic effect of intratumoural injection, single agent, nu/nu mice” value is reported as “no major therapeutic effect”. For the same compound, the “CRT exposure at the cell surface” value in experiment [1] is recorded as “fail to induce ecto-CRT”. Further, the “therapeutic effect of intratumoural injection, single agent, immunocompetent mice” value in experiment [4] is listed as “no major therapeutic effect”.

With `CCOc1ccc(-c2nc3ccc(-c4nc5ccc(N6CCN(C)CC6)cc5[nH]4)cc3[nH]2)cc1` [Hoechst 33342], the “immunogenic apoptosis / immunogenic cell death (protection against tumour growth)” value in experiment [2] is “failed to induce immunogenic apoptosis”.

With `C[C@H]1CCC/C=C/[C@@H]2C[C@H](O)C[C@H]2[C@H](O)/C=C/C(=O)O1` [brefeldin, brefeldin A], the “immunogenic apoptosis / immunogenic cell death (protection against tumour growth)” value in experiment [2] was “failed to induce immunogenic apoptosis”.

With `C/C=C(/C)C(=O)O[C@H]1C(C)=C2[C@H]([C@@H]1OC(=O)CCCCCCC)[C@@](C)(OC(C)=O)C[C@H](OC(=O)CCC)[C@@]1(O)[C@H]2OC(=O)[C@@]1(C)O` [thapsigargin], the “immunogenic apoptosis / immunogenic cell death (protection against tumour growth)” value in experiment [2] is recorded as “failed to induce immunogenic apoptosis”.

With `C/C1=C/C(=O)O[C@@H]2C[C@@H](CC[C@H](C)/C=C\C=C\CC1)O[C@@](O)([C@@H]1CSC(=O)N1)C2` [latrunculin A], in experiment [1] (pre-incubation for 1 h with the inhibitor), the “effect on CRT exposure induced by anthracyclins and PP1/GADD34 inhibitors” value is reported as “abolished”.

Consider `COC[C@@H]([C@H](O)[C@H](O)C(=O)NCC[C@H](C)c1nc(/C=C/C[C@@H]2O[C@]3(C[C@@H](O)[C@@H]2C)O[C@H]([C@H](C[C@H](O)[C@H](C)[C@H](O)[C@H](C)/C=C(C)/C(C)=C/C=C/C(C)=C\C#N)OC)[C@H](OP(=O)(O)O)C3(C)C)co1)N(C)C` [calyculin A], for which, in experiment [2] (mouse, in vivo), the “immunogenic cell death by PP1/GADD34 inhibition alone” value is given as “not sufficient to induce immunogenic cell death”. Further, the “CRT exposure at the cell surface” value in experiment [1] was “efficiently induced”.
